The source of these data is US20040116451A1, “Method of treatment” (Pfizer Inc., priority 2002, published 2004).

The subject of the test is men with lower urinary tract symptoms. The test can be described thus: 12-Week double-blind study in men with lower urinary tract symptoms (IPSS and bladder diary). Format: in vivo. The settings on record: for improvement in IPSS irritative domain: subjects with baseline IPSS irritative domain score ≧β; for improvement in IPSS irritative domain / improvement in irritative LUTS (urgency, daytime micturition frequency, nocturia; bladder diary): controlled release formulation, 12 weeks; for improvement in irritative LUTS (urgency, daytime micturition frequency, nocturia; bladder diary): subjects with irritative LUTS at baseline, compared with placebo. As for the experimental part: A 12-Week Study in men with lower urinary tract symptoms was undertaken in which the IPSS (International Prostate Symptom Score) was recorded at baseline during, and at the end of, double-blind treatment. The IPSS is composed of seven questions, each with potential responses of 0-5 on a Likert scale. These questions are grouped into two validated domains: the irritative domain (urgency, frequency and nocturia) and the obstructive domain (incomplete emptying, intermittency, weak stream and straining to begin). […] The average daily incidence of urgency, daytime micturition frequency and nocturia (the irritative symptoms) for each subject were derived from this diary. In this study, there were […] treatment groups: 6 mg fixed dose of 4-amino-6,7-dimethoxy-2-(5-methanesulfonamido-1,2,3,4-tetrahydroisoquinol-2-yl)-5-(2-pyridyl)quinazoline, 6 mg escalated to 12 mg at Week 4 of the compound, and placebo. Controlled release formulations according to International Application Publication No. WO 03/032956 were used in each case.

[1] abbreviates: 12 mg dose escalation group (6 mg escalated to 12 mg at Week 4).

In the case of `COc1cc2nc(N3CCc4c(cccc4NS(C)(=O)=O)C3)nc(N)c2c(-c2ccccn2)c1OC` [4-amino-6,7-dimethoxy-2-(5-methanesulfonamido-1,2,3,4-tetrahydroisoquinol-2-yl)-5-(2-pyridyl)quinazoline], the “attenuation of irritative LUTS (overall study result, FIGS. 1 to 4)” value (12-week study in men with LUTS, controlled release formulations) is “clinically significant attenuation of irritative LUTS”. Moreover, under “6 mg fixed dose group”, the “improvement in IPSS irritative domain” value was “improvement in this domain of the IPSS was similarly confirmed” and the “improvement in irritative LUTS (urgency, daytime micturition frequency, nocturia; bladder diary)” value is given as “improvement in these symptoms was confirmed”. Under setting [1], the “improvement in IPSS irritative domain” value is reported as “improvement in this domain of the IPSS was similarly confirmed” and the “improvement in irritative LUTS (urgency, daytime micturition frequency, nocturia; bladder diary)” value is on record as “improvement in these symptoms was confirmed”.
